Key:
Carboplatin = compound: C1CC(C1)(C(=O)[O-])C(=O)[O-].N.N.[Pt+2] [Carboplatin]; conditions: max 10 µM
Procedure, shortened: (§1)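 Plates with 1536 wells received cancer cell lines in 7.5 μl of DMEM/F12 or RPMI containing 10% FBS. After 24 hours at 37°C and 5% CO2, cells were dosed for 72 hours with final DMSO typically 0.2%, and viability was read by CellTiter-Glo 2.0 luminescence scaled between blank-well and DMSO-well means. The single-agent IC50 was taken from a logistic fit of the dose responses made with a non-linear mixed effects model, that logistic curve having two parameters.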

AZD5363 = compound: C1CN(CCC1(C(=O)N[C@@H](CCO)C2=CC=C(C=C2)Cl)N)C3=NC=NC4=C3C=CN4 [AZD5363]; conditions: max 10 µM
Procedure, shortened: as §1

AZD1775 = compound: C=CCn1c(=O)c2cnc(Nc3ccc(N4CCN(C)CC4)cc3)nc2n1-c1cccc(C(C)(C)O)n1 [AZD1775]; conditions: max 3 µM
Procedure, shortened: as §1

Trametinib = compound: CC(=O)Nc1cccc(-n2c(=O)n(C3CC3)c(=O)c3c(Nc4ccc(I)cc4F)n(C)c(=O)c(C)c32)c1 [Trametinib]; conditions: max 1 µM
Procedure, shortened: as §1

Paclitaxel = compound: CC(=O)O[C@H]1C(=O)[C@@]2(C)[C@H]([C@H](OC(=O)c3ccccc3)[C@]3(O)C[C@H](OC(=O)[C@H](O)[C@@H](NC(=O)c4ccccc4)c4ccccc4)C(C)=C1C3(C)C)[C@]1(OC(C)=O)CO[C@@H]1C[C@@H]2O [Paclitaxel]; conditions: max 3 µM
Procedure, shortened: as §1

Palbociclib = compound: CC(=O)c1c(C)c2cnc(Nc3ccc(N4CCNCC4)cn3)nc2n(C2CCCC2)c1=O [Palbociclib]; conditions: max 10 µM
Procedure, shortened: as §1

AZD1390 = compound: CC(C)n1c(=O)n(C)c2cnc3cc(F)c(-c4ccc(OCCCN5CCCCC5)nc4)cc3c21 [AZD1390]; conditions: max 0.3 µM
Procedure, shortened: as §1

Venetoclax = compound: CC1(C)CCC(CN2CCN(c3ccc(C(=O)NS(=O)(=O)c4ccc(NCC5CCOCC5)c([N+](=O)[O-])c4)c(Oc4cnc5[nH]ccc5c4)c3)CC2)=C(c2ccc(Cl)cc2)C1 [Venetoclax]; conditions: max 1 µM
Procedure, shortened: as §1

Dasatinib = compound: CC1=C(C(=CC=C1)Cl)NC(=O)C2=CN=C(S2)NC3=CC(=NC(=N3)C)N4CCN(CC4)CCO [Dasatinib]; conditions: max 2 µM
Procedure, shortened: as §1

SG3199 = compound: CC1=CN2[C@@H](C1)C=NC3=CC(=C(C=C3C2=O)OC)OCCCCCOC4=C(C=C5C(=C4)N=C[C@@H]6CC(=CN6C5=O)C)OC [SG3199]; conditions: max 0.001 µM
Procedure, shortened: as §1

AZD2811 = compound: CCN(CCO)CCCOc1ccc2c(Nc3cc(CC(=O)Nc4cccc(F)c4)[nH]n3)ncnc2c1 [AZD2811]; conditions: max 1 µM
Procedure, shortened: as §1

SN-38 = compound: CCc1c2c(nc3ccc(O)cc13)-c1cc3c(c(=O)n1C2)COC(=O)[C@]3(O)CC [SN-38]; conditions: max 0.3 µM
Procedure, shortened: as §1

AZD0156 = compound: CN(C)CCCOc1ccc(-c2ccc3ncc4c(c3c2)n(C2CCOCC2)c(=O)n4C)cn1 [AZD0156]; conditions: max 3 µM
Procedure, shortened: as §1

AZD4320 = compound: CN(CC[C@H](CSC1=CC=CC=C1)NC2=C(C=C(C=C2)S(=O)(=O)NC(=O)C3=CC=C(C=C3)N4CCC(CC4)[C@H](C5=CC=CC=C5C6=CC=C(C=C6)Cl)O)S(=O)(=O)C(F)(F)F)CCO [AZD4320]; conditions: max 1 µM
Procedure, shortened: as §1

Alisertib = compound: COc1cc(Nc2ncc3c(n2)-c2ccc(Cl)cc2C(c2c(F)cccc2OC)=NC3)ccc1C(=O)O [Alisertib]; conditions: max 10 µM
Procedure, shortened: as §1

Etoposide = compound: COc1cc([C@@H]2c3cc4c(cc3[C@@H](O[C@@H]3O[C@@H]5CO[C@@H](C)O[C@H]5[C@H](O)[C@H]3O)[C@H]3COC(=O)[C@H]23)OCO4)cc(OC)c1O [Etoposide]; conditions: max 10 µM
Procedure, shortened: as §1

Gefitinib = compound: COc1cc2ncnc(Nc3ccc(F)c(Cl)c3)c2cc1OCCCN1CCOCC1 [Gefitinib]; conditions: max 10 µM
Procedure, shortened: as §1

Prexasertib = compound: COc1cccc(OCCCN)c1-c1cc(Nc2cnc(C#N)cn2)n[nH]1 [Prexasertib]; conditions: max 1 µM
Procedure, shortened: as §1

Doxorubicin = compound: COc1cccc2c1C(=O)c1c(O)c3c(c(O)c1C2=O)C[C@@](O)(C(=O)CO)C[C@@H]3O[C@H]1C[C@H](N)[C@H](O)[C@H](C)O1 [Doxorubicin]; conditions: max 1 µM
Procedure, shortened: as §1

AZD5153 = compound: COc1nnc2ccc(N3CCC(c4ccc(OCCN5CCN(C)C(=O)[C@H]5C)cc4)CC3)nn12 [AZD5153]; conditions: max 1 µM
Procedure, shortened: as §1

Lapatinib = compound: CS(=O)(=O)CCNCc1ccc(-c2ccc3ncnc(Nc4ccc(OCc5cccc(F)c5)c(Cl)c4)c3c2)o1 [Lapatinib]; conditions: max 10 µM
Procedure, shortened: as §1

AZD8186 = compound: C[C@@H](Nc1cc(F)cc(F)c1)c1cc(C(=O)N(C)C)cc2c(=O)cc(N3CCOCC3)oc12 [AZD8186]; conditions: max 10 µM
Procedure, shortened: as §1

Crizotinib = compound: C[C@@H](Oc1cc(-c2cnn(C3CCNCC3)c2)cnc1N)c1c(Cl)ccc(F)c1Cl [Crizotinib]; conditions: max 10 µM
Procedure, shortened: as §1

Savolitinib = compound: C[C@@H](c1ccc2nccn2c1)n1nnc2ncc(-c3cnn(C)c3)nc21 [Savolitinib]; conditions: max 1 µM
Procedure, shortened: as §1

AZD6738 = compound: C[C@@H]1COCCN1C2=NC(=NC(=C2)C3(CC3)[S@](=N)(=O)C)C4=C5C=CNC5=NC=C4 [AZD6738]; conditions: max 10 µM
Procedure, shortened: as §1

AZD5991 = compound: Cc1c2c(nn1C)CSCc1cc(n(C)n1)CSc1cc(c3ccccc3c1)OCCCc1c(C(=O)O)n(C)c3c-2c(Cl)ccc13 [AZD5991]; conditions: max 1 µM
Procedure, shortened: as §1

AZD7648 = compound: Cc1cc2ncnn2cc1Nc1ncc2c(n1)n(C1CCOCC1)c(=O)n2C [AZD7648]; conditions: max 10 µM
Procedure, shortened: as §1

Taselisib = compound: Cc1nc(-c2cn3c(n2)-c2ccc(-c4cnn(C(C)(C)C(N)=O)c4)cc2OCC3)n(C(C)C)n1 [Taselisib]; conditions: max 10 µM
Procedure, shortened: as §1

Selumetinib = compound: Cn1cnc2c(F)c(Nc3ccc(Br)cc3Cl)c(C(=O)NOCCO)cc21 [Selumetinib]; conditions: max 10 µM
Procedure, shortened: as §1

SRA737 = compound: N#Cc1cnc(Nc2cc(NC[C@H]3CNCCO3)c(C(F)(F)F)cn2)cn1 [SRA737]; conditions: max 10 µM
Procedure, shortened: as §1

MK-2206 = compound: NC1(c2ccc(-c3nc4ccn5c(=O)[nH]nc5c4cc3-c3ccccc3)cc2)CCC1 [MK-2206]; conditions: max 10 µM
Procedure, shortened: as §1

Gemcitabine = compound: Nc1ccn([C@@H]2O[C@H](CO)[C@@H](O)C2(F)F)c(=O)n1 [Gemcitabine]; conditions: max 0.3 µM
Procedure, shortened: as §1

[1] = compound: O=C(Nc1ccc2[nH]nc(-c3ccncc3)c2c1)[C@@H]1CCN(CC(=O)N2CCN(c3ccc(-c4ncccn4)cc3)CC2)C1; conditions: max 5 µM
Procedure, shortened: as §1

Olaparib = compound: O=C(c1cc(Cc2n[nH]c(=O)c3ccccc23)ccc1F)N1CCN(C(=O)C2CC2)CC1 [Olaparib]; conditions: max 10 µM
Procedure, shortened: as §1

5-Fluorouracil = compound: O=c1[nH]cc(F)c(=O)[nH]1 [5-Fluorouracil]; conditions: max 20 µM
Procedure, shortened: as §1

Cell Line | IC50, cell viability 72 h (Carboplatin) | IC50, cell viability 72 h (AZD5363) | IC50, cell viability 72 h (AZD1775) | IC50, cell viability 72 h (Trametinib) | IC50, cell viability 72 h (Paclitaxel) | IC50, cell viability 72 h (Palbociclib) | IC50, cell viability 72 h (AZD1390) | IC50, cell viability 72 h (Venetoclax) | IC50, cell viability 72 h (Dasatinib) | IC50, cell viability 72 h (SG3199) | IC50, cell viability 72 h (AZD2811) | IC50, cell viability 72 h (SN-38) | IC50, cell viability 72 h (AZD0156) | IC50, cell viability 72 h (AZD4320) | IC50, cell viability 72 h (Alisertib) | IC50, cell viability 72 h (Etoposide) | IC50, cell viability 72 h (Gefitinib) | IC50, cell viability 72 h (Prexasertib) | IC50, cell viability 72 h (Doxorubicin) | IC50, cell viability 72 h (AZD5153) | IC50, cell viability 72 h (Lapatinib) | IC50, cell viability 72 h (AZD8186) | IC50, cell viability 72 h (Crizotinib) | IC50, cell viability 72 h (Savolitinib) | IC50, cell viability 72 h (AZD6738) | IC50, cell viability 72 h (AZD5991) | IC50, cell viability 72 h (AZD7648) | IC50, cell viability 72 h (Taselisib) | IC50, cell viability 72 h (Selumetinib) | IC50, cell viability 72 h (SRA737) | IC50, cell viability 72 h (MK-2206) | IC50, cell viability 72 h (Gemcitabine) | IC50, cell viability 72 h [1] | IC50, cell viability 72 h (Olaparib) | IC50, cell viability 72 h (5-Fluorouracil)
SK-UT-1 (Other Solid Carcinomas) | > 10000 nM | > 10000 nM | 1100 nM | > 1000 nM | 28.2 nM | > 10000 nM | > 300 nM | > 1000 nM | > 2000 nM | > 1 nM | > 1000 nM | 22.7 nM | > 3000 nM | > 1000 nM | > 10000 nM | 3400 nM | > 10000 nM | 21.6 nM | 971 nM | 694 nM | > 10000 nM | > 10000 nM | > 10000 nM | > 1000 nM | 4170 nM | > 1000 nM | > 10000 nM | 8850 nM | > 10000 nM | 3420 nM | > 10000 nM | 9.12 nM | > 5000 nM | > 10000 nM | > 20000 nM
SLVL (B-Cell Non-Hodgkin's Lymphoma) | > 10000 nM | 4580 nM | 836 nM | 402 nM | 6.06 nM | > 10000 nM | > 300 nM | > 1000 nM | 1810 nM | > 1 nM | 195 nM | 2.35 nM | > 3000 nM | 428 nM | 148 nM | 850 nM | > 10000 nM | 19.9 nM | 76.8 nM | 101 nM | > 10000 nM | > 10000 nM | 7080 nM | > 1000 nM | 3760 nM | > 1000 nM | > 10000 nM | 5560 nM | 9510 nM | 2520 nM | > 10000 nM | 15.1 nM | > 5000 nM | > 10000 nM | 1560 nM
SNG-M (Endometrial Carcinoma) | > 10000 nM | > 10000 nM | 874 nM | > 1000 nM | 6.87 nM | > 10000 nM | > 300 nM | > 1000 nM | 259 nM | > 1 nM | > 1000 nM | 153 nM | > 3000 nM | > 1000 nM | 2440 nM | > 10000 nM | > 10000 nM | 23.1 nM | > 1000 nM | > 1000 nM | > 10000 nM | > 10000 nM | > 10000 nM | > 1000 nM | 1310 nM | > 1000 nM | > 10000 nM | 3820 nM | > 10000 nM | 5190 nM | > 10000 nM | 33 nM | > 5000 nM | > 10000 nM | > 20000 nM

— the supplement of paper PMC11061612
